The source made the active and inactive calls. The calls are words filed in the database; no cut-off is given here.
What was measured:
[1] = Growth inhibition of human Hs 578T cells at 10 uM after 48 hrs; format: functional; settings: read-out: GI
[2] = Growth inhibition of human MOLT4 cells at 10 uM after 48 hrs; format: functional; settings: MOLT-4, 48 h, read-out: GI
[3] = target: T1, Dihydrofolate reductase (Bos taurus, UniProt P00376); assay: Inhibition of bovine liver DHFR
T1 sequence (P00376 whole entry): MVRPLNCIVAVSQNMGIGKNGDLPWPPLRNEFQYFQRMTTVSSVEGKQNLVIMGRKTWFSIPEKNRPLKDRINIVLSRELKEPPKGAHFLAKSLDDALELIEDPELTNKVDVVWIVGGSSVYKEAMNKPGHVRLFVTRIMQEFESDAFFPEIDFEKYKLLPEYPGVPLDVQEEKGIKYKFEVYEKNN

[4] = Growth inhibition of human RXF393 cells at 10 uM after 48 hrs; format: functional; settings: RXF 393, 48 h, read-out: GI
[5] = Growth inhibition of human SF539 cells at 10 uM after 48 hrs; format: functional; settings: SF-539, 48 h, read-out: GI
[6] = system: CAKI-1; assay: Growth inhibition of human CAKI-1 cells at 10 uM after 48 hrs; format: functional; settings: CAKI-1, 48 h, read-out: GI
[7] = Growth inhibition of human LOXIMVI cells at 10 uM after 48 hrs; format: functional; settings: LOX IMVI, read-out: GI
[8] = Growth inhibition of human HCT15 cells at 10 uM after 48 hrs; format: functional; settings: HCT-15, 48 h, read-out: GI
[9] = system: KM12; assay: Growth inhibition of human KM12 cells at 10 uM after 48 hrs; format: functional; settings: KM12, 48 h, read-out: GI
[10] = system: T47D; assay: Growth inhibition of human T47D cells at 10 uM after 48 hrs; format: functional; settings: read-out: GI
[11] = Growth inhibition of human OVCAR5 cells at 10 uM after 48 hrs; format: functional; settings: OVCAR-5, 48 h, read-out: GI
[12] = system: Bacillus subtilis; assay: Antimicrobial activity against Bacillus subtilis assessed as inhibition zone at 200 ug/disk after 24 hrs by disc-diffusion method; format: functional; settings: for zone of inhibition at 200 µg/disc: read-out: IZ
[13] = system: A498; assay: Growth inhibition of human A498 cells at 10 uM after 48 hrs; format: functional; settings: A498, 48 h, read-out: GI
[14] = system: NCI-H23; assay: Growth inhibition of human NCI-H23 cells at 10 uM after 48 hrs; format: functional; settings: NCI-H23, 48 h, read-out: GI
[15] = system: 786-0; assay: Growth inhibition of human 786-0 cells at 10 uM after 48 hrs; format: functional; settings: 786-0, 48 h, read-out: GI
[16] = system: U-251; assay: Growth inhibition of human U251 cells at 10 uM after 48 hrs; format: functional; settings: U-251, 48 h, read-out: GI
[17] = system: SK-MEL-5; assay: Growth inhibition of human SK-MEL-5 cells at 10 uM after 48 hrs; format: functional; settings: SK-MEL-5, 48 h, read-out: GI
[18] = Growth inhibition of human NCI-ADR-RES cells at 10 uM after 48 hrs; format: functional; settings: read-out: GI
[19] = system: HT-29; assay: Growth inhibition of human HT-29 cells at 10 uM after 48 hrs; format: functional; settings: HT-29, 48 h, read-out: GI
[20] = system: SR; assay: Growth inhibition of human SR cells at 10 uM after 48 hrs; format: functional; settings: read-out: GI
[21] = system: SN12C; assay: Growth inhibition of human SN12C cells at 10 uM after 48 hrs; format: functional; settings: read-out: GI
[22] = system: MDA-MB-231; assay: Growth inhibition of human MDA-MB-231 cells at 10 uM after 48 hrs; format: functional; settings: MDA-MB-231, 48 h, read-out: GI
[23] = system: K562; assay: Growth inhibition of human K562 cells at 10 uM after 48 hrs; format: functional; settings: K562, 48 h, read-out: GI
[24] = Growth inhibition of human HOP92 cells at 10 uM after 48 hrs; format: functional; settings: HOP-92, 48 h, read-out: GI
[25] = Growth inhibition of human OVCAR8 cells at 10 uM after 48 hrs; format: functional; settings: OVCAR-8, 48 h, read-out: GI
[26] = system: A549; assay: Growth inhibition of human A549 cells at 10 uM after 48 hrs; format: functional; settings: A549, 48 h, read-out: GI
[27] = system: Candida albicans; assay: Antimicrobial activity against Candida albicans assessed as inhibition zone at 200 ug/disk after 24 hrs by disc-diffusion method; format: functional; settings: for zone of inhibition at 200 µg/disc: read-out: IZ
[28] = system: SF-268; assay: Growth inhibition of human SF268 cells at 10 uM after 48 hrs; format: functional; settings: SF-268, 48 h, read-out: GI
[29] = system: SNB-19; assay: Growth inhibition of human SNB19 cells at 10 uM after 48 hrs; format: functional; settings: SNB-19, 48 h, read-out: GI
[30] = system: Staphylococcus aureus; assay: Antimicrobial activity against Staphylococcus aureus assessed as inhibition zone at 200 ug/disk after 24 hrs by disc-diffusion method; format: functional; settings: for zone of inhibition at 200 µg/disc: read-out: IZ
[31] = Growth inhibition of human HCT116 cells at 10 uM after 48 hrs; format: functional; settings: HCT-116, 48 h, read-out: GI
[32] = Growth inhibition of human UACC62 cells at 10 uM after 48 hrs; format: functional; settings: UACC-62, 48 h, read-out: GI
[33] = system: Escherichia coli; assay: Antimicrobial activity against Escherichia coli assessed as inhibition zone at 200 ug/disk after 24 hrs by disc-diffusion method; format: functional; settings: for zone of inhibition at 200 µg/disc: read-out: IZ
[34] = Growth inhibition of human PC3 cells at 10 uM after 48 hrs; format: functional; settings: PC-3, 48 h, read-out: GI
[35] = Growth inhibition of human UACC257 cells at 10 uM after 48 hrs; format: functional; settings: UACC-257, 48 h, read-out: GI
[36] = system: M14; assay: Growth inhibition of human M14 cells at 10 uM after 48 hrs; format: functional; settings: M14, 48 h, read-out: GI
[37] = Growth inhibition of human BT549 cells at 10 uM after 48 hrs; format: functional; settings: BT-549, 48 h, read-out: GI
[38] = Growth inhibition of human UO31 cells at 10 uM after 48 hrs; format: functional; settings: UO-31, 48 h, read-out: GI
[39] = Growth inhibition of human SF295 cells at 10 uM after 48 hrs; format: functional; settings: SF-295, 48 h, read-out: GI
[40] = system: Pseudomonas aeruginosa; assay: Antimicrobial activity against Pseudomonas aeruginosa assessed as inhibition zone at 200 ug/disk after 24 hrs by disc-diffusion method; format: functional; settings: for zone of inhibition at 200 µg/disc: read-out: IZ
[41] = system: Bacillus subtilis; assay: Antimicrobial activity against Bacillus subtilis assessed as inhibition of visible growth after 24 hrs by disc-diffusion method; format: functional, organism-based
[42] = system: Pseudomonas aeruginosa; assay: Antimicrobial activity against Pseudomonas aeruginosa assessed as inhibition of visible growth after 24 hrs by disc-diffusion method; format: functional, organism-based
[43] = system: Escherichia coli; assay: Antimicrobial activity against Escherichia coli assessed as inhibition of visible growth after 24 hrs by disc-diffusion method; format: functional, organism-based
[44] = system: Staphylococcus aureus; assay: Antimicrobial activity against Staphylococcus aureus assessed as inhibition of visible growth after 24 hrs by disc-diffusion method; format: functional, organism-based
[45] = system: Candida albicans; assay: Antimicrobial activity against Candida albicans assessed as inhibition of visible growth after 24 hrs by disc-diffusion method; format: functional, organism-based
[46] = system: NCI-H226; assay: Growth inhibition of human NCI-H226 cells at 10 uM after 48 hrs; format: functional; settings: NCI-H226, 48 h, read-out: GI
[47] = Growth inhibition of human OVCAR3 cells at 10 uM after 48 hrs; format: functional; settings: OVCAR-3, 48 h, read-out: GI
[48] = system: NCI-H522; assay: Growth inhibition of human NCI-H522 cells at 10 uM after 48 hrs; format: functional; settings: NCI-H522, 48 h, read-out: GI
[49] = Growth inhibition of human OVCAR4 cells at 10 uM after 48 hrs; format: functional; settings: OVCAR-4, 48 h, read-out: GI
[50] = system: Malme-3M; assay: Growth inhibition of human MALME-3M cells at 10 uM after 48 hrs; format: functional; settings: read-out: GI
[51] = Growth inhibition of human RPMI8226 cells at 10 uM after 48 hrs; format: functional; settings: RPMI-8226, 48 h, read-out: GI

Cc1ccc2nc(Sc3sc(N)nc3C)n(-c3ccc(Cl)cc3)c(=O)c2c1
inhibition of growth at 10 µM [1]: 12.6% | inhibition of growth at 10 µM [2]: 19% | IC50 [3]: 7 µM | inhibition of growth at 10 µM [4]: 28.5% | inhibition of growth at 10 µM [5]: 13.9% | inhibition of growth at 10 µM [6]: 11.2% | inhibition of growth at 10 µM [7]: 16.5% | inhibition of growth at 10 µM [8]: 27.7% | inhibition of growth at 10 µM [9]: 24.6% | inhibition of growth at 10 µM [10]: 12.4% | inhibition of growth at 10 µM [11]: 12.1% | zone of inhibition at 200 µg/disc [12]: 8 mm | inhibition of growth at 10 µM [13]: 53% | inhibition of growth at 10 µM [14]: 10.1% | inhibition of growth at 10 µM [15]: 29.3% | inhibition of growth at 10 µM [16]: 21.5% | inhibition of growth at 10 µM [17]: 16.3% | inhibition of growth at 10 µM [18]: 17.5% | inhibition of growth at 10 µM [19]: 11.7% | inhibition of growth at 10 µM [20]: 49.2% | inhibition of growth at 10 µM [21]: 12.8% | inhibition of growth at 10 µM [22]: 13% | inhibition of growth at 10 µM [23]: 15.6% | inhibition of growth at 10 µM [24]: 43.3% | inhibition of growth at 10 µM [25]: 10.8% | inhibition of growth at 10 µM [26]: 16.9% | zone of inhibition at 200 µg/disc [27]: 8 mm | inhibition of growth at 10 µM [28]: 13.2% | inhibition of growth at 10 µM [29]: 11.6% | zone of inhibition at 200 µg/disc [30]: 8 mm | inhibition of growth at 10 µM [31]: 22.8% | inhibition of growth at 10 µM [32]: 26% | zone of inhibition at 200 µg/disc [33]: 8 mm | inhibition of growth at 10 µM [34]: 28.6% | inhibition of growth at 10 µM [35]: 13.6% | inhibition of growth at 10 µM [36]: 15.6% | inhibition of growth at 10 µM [37]: 33.1% | inhibition of growth at 10 µM [38]: 46% | inhibition of growth at 10 µM [39]: 18.2% | zone of inhibition at 200 µg/disc [40]: 8 mm

GENTAMICIN
Activity [41]: Active | Activity [42]: Active | inhibition zone (IZ) [12]: 25 mm | Activity [43]: Active | Activity [44]: Active | inhibition zone (IZ) [27]: 19 mm | inhibition zone (IZ) [30]: 27 mm | inhibition zone (IZ) [33]: 18 mm | Activity [45]: Active | inhibition zone (IZ) [40]: 21 mm

Cc1nc(N)sc1Sc1nc2ccc(Cl)cc2c(=O)n1Cc1ccccc1
inhibition of growth at 10 µM [46]: 10.4% | inhibition of growth at 10 µM [2]: 16% | IC50 [3]: 5 µM | Activity [41]: Active | inhibition of growth at 10 µM [7]: 23.2% | inhibition of growth at 10 µM [10]: 14.7% | inhibition of growth at 10 µM [47]: 14.9% | zone of inhibition at 200 µg/disc [12]: 19 mm | inhibition of growth at 10 µM [14]: 13.6% | inhibition of growth at 10 µM [48]: 35.4% | inhibition of growth at 10 µM [20]: 16.1% | inhibition of growth at 10 µM [49]: 20.9% | inhibition of growth at 10 µM [23]: 17.6% | inhibition of growth at 10 µM [24]: 16.8% | Activity [44]: Active | zone of inhibition at 200 µg/disc [27]: 8 mm | inhibition of growth at 10 µM [28]: 13.3% | inhibition of growth at 10 µM [50]: 15.9% | zone of inhibition at 200 µg/disc [30]: 18 mm | inhibition of growth at 10 µM [32]: 15.2% | zone of inhibition at 200 µg/disc [33]: 12 mm | inhibition of growth at 10 µM [51]: 20.8% | inhibition of growth at 10 µM [34]: 15.8% | inhibition of growth at 10 µM [38]: 36.4% | zone of inhibition at 200 µg/disc [40]: 8 mm
